Where two headings read alike, the source gives them in different places.
How the values were obtained:
Rhipicephalus sanguineus [1] = experiment: Dose response protocol for topical application on brown dog ticks (LD50); conditions: 24 h mortality, probit analysis
Experimental: e) Dose response protocol for topical application on brown dog ticks (Rhipicephalus sanguineus): The test determines the level of insecticidal activity of sample compounds or formulations when applied topically on brown dog ticks. Sample compounds were stored prior to use in a freezer (−5±1° C.), unless otherwise specified.
• Mortality: A tick is defined as dead after it gives no apparent response when touched lightly or gently breathed upon, while observed for 30 seconds. • LD50 (Lethal Dose 50): The dose of a topically applied treatment at which 50% of the dog ticks are killed. • Reference compound: To assess an experimental compound for significant acaricidal activity a single dose level is chosen, which is based upon known results from previous experiments using a commercially available active i.e., a reference compound. The reference compound selected is one in common use, and one that has a similar mode of action against the Brown Dog Tick (i.e., the test species), • Recovery container: A recovery container consists of a 500 ml round plastic container measuring 115 mm diameter and 70 mm height, with a tight fitting lid that has 10 small (˜1 mm) holes inserted for air exchange. A 90 mm diameter piece of filter paper was placed on the bottom of the container and moistened with 1 mL of distilled water.
Adult, mixed sex, Brown Dog Ticks (Rhipicephalus sanguineus) were reared as follows: (i) cultured, (ii) transferred unfed, to a testing laboratory, and (iii) then maintained under controlled conditions (i.e., temp. 18°±2° C., humidity 75±5% RH). The ticks used were selected for vigor prior to testing, i.e., capable of actively walking and responsive to being touched or gently breathed upon.
During the testing, the temperature was maintained at 25±1° C. and the humidity was ambient. Seven dose levels (concentrations) of sample compound, in the form of serial dilutions in acetone, were derived from a pilot study and covered a range that produced very low to very high mortality. Groups of ten ticks were treated topically (on the abdomen) with 1 μL of a single dose level of the sample compound. Each test was replicated four times, i.e., employing a total of 40 ticks per dose level of each sample compound. As a control, ten ticks were treated with solvent only (acetone) for each test. Following the treatment, the ticks were held in recovery containers maintained under appropriate rearing conditions for 24 hours. Mortality resulting from the treatments was recorded at 24 hours. […] Press, London (1971).]

Ctenocephalides felis [2] = experiment: Ctenocephalides felis adulticide assay: C. felis dose response (LC50)
Text: c) Ctenocephalides felis Adulticide Assay: C. felis Dose Response
The purpose of this example was to determine the LC50 when cat fleas were contacted with a glass surface treated with sample compounds or formulations prepared as described above. […] The test species was the cat flea (Ctenocephalides felis). The strain used was obtained from external suppliers as pupae and held in the laboratory under testing conditions until the adults had emerged. Fifteen (15) fleas were used in a minimum of four replicates for each dose level (total of 60 fleas per dose level). The insects were selected to be in the adult life stage, aged between 3 and 7 days post emergence.
The compounds to be tested were dissolved in acetone just prior to testing. Samples of compounds were stored in a refrigerator (5±1° C.) unless otherwise specified. During the mortality testing, the temperature was maintained at 25±1° C. Humidity was maintained at 75±5%. The base (area=159 mm^2) of a 100 mL glass Erlenmeyer (conical) flask provided the treatment surface. Flasks were pretreated with Coatasil™ glass treatment to maximise bio-availability of test compounds by preventing them from binding to the glass surface.
The base of the 100 mL Erlenmeyer flask was treated with 0.5 mL of test sample in acetone and gently swirled. This volume was sufficient to cover the base of the flask. Flasks were left to dry for 24 hours before flea exposure. Adult cat fleas were lightly anaesthetised by cooling and then placed into a sorting chamber, which allowed fleas to revive and jump into the Erlenmeyer flasks. Fifteen (15) adult cat fleas were collected in each flask. The top of the flasks were then covered in Parafilm™ and small holes made to allow gas exchange. A 0.5 mL volume of acetone was applied to the base of an Erlenmeyer flask and the testing proceeded in the same manner described above. Cat fleas in the treatment containers were held under testing conditions for 24 hours. Mortality resulting from the treatments was recorded at 8 and 24 hours.

Rhipicephalus sanguineus [3] = experiment: Rapid screening protocol for topical application on brown dog ticks (% mortality)
Experimental: d) Rapid Screening Protocol for Topical Application on Brown Dog Ticks (Rhipicephalus sanguineus)
The aim of the test was to determine the presence of significant acaricidal activity in sample compounds or formulations when applied topically on brown dog ticks. A tick was defined as dead if it gave no apparent response when touched lightly and observed for 1 minute. To assess the experimental compound for acaricidal activity, a single dose level was chosen based on known results from previous experiments with a commercially available active reference compound. Both permethrin and fipronil were employed as reference compounds. The insect species tested was the Brown Dog Tick (Rhipicephalus sanguineus). Mixed sex adult ticks were used for tests. The strain used was cultured by von Berky Veterinary Services, Woody Point, QLD, AU and supplied as unfed adult ticks (mixed sex). Ticks were maintained in controlled conditions (temp. 18°±2° C., humidity 75±5% RH).
Test compounds (formulations or active ingredients) were stored in a refrigerator (5±1° C.) unless otherwise specified. Temperature was maintained at 25±1° C. and the humidity was ambient. The screening dose chosen was higher than that known to kill 90% of insects (LD90) using the reference compound. In the case of topical application of active compounds on adult ticks, the reference compound was fipronil and the dose chosen was 10 μg of active per tick (=10 μg of fipronil/1 μl of acetone). Ticks were each treated on the abdomen with 1 μL of a single dose level of test sample in acetone; ten ticks were treated with solvent only (acetone) in each test. Tests were replicated 4 times (total of 40 ticks treated). Ticks were held in recovery containers maintained under appropriate rearing conditions for 24 hours. Mortality resulting from the treatments was recorded at 24 hours. Pooled 24 hour mortality data were converted to percentages.

Ctenocephalides felis [4] = test system: Ctenocephalides felis
Method in brief: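 Adult cat fleas (3–7 days post-emergence), 15 per flask in ≥4 replicates, exposed to a dried acetone residue at 1.26 μg/cm^2 on a Coatasil-treated glass flask base. Held at 25±1° C, 75±5% humidity; mortality (immobile or unable to right) scored at 8, 24 and/or 48 h.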

Row | SMILES | R. sanguineus LD50 (Rhipicephalus sanguineus [1]) [μg/tick] | C. felis LC50 (Ctenocephalides felis [2]) [ppm] | R. sanguineus Mortality (%) 24 h (Rhipicephalus sanguineus [3]; data from laboratory 2) [%] | C. felis Mortality (%) 8 h (Ctenocephalides felis [4]) [%] | C. felis Mortality (%) 24 h (Ctenocephalides felis [4]) [%] | C. felis LC50 (Ctenocephalides felis [2]; data from laboratory 1) [ppm] | R. sanguineus Mortality (%) 24 h (Rhipicephalus sanguineus [3]; data from laboratory 1) | C. felis Mortality (%) 48 h (Ctenocephalides felis [4]) [%]
1 | CC(=NN(C)c1cccc(Cl)c1)c1cc(Cl)ccc1NS(=O)(=O)C(F)(F)F [Compound 51] | 2.6 | 0.82 | 100 | 100 | 100 |  |  | 
2 | CC(=NN1CCCCC1)c1cc(Cl)ccc1NS(=O)(=O)C(F)(F)F [Compound 21, N-[2-[1-(1-piperidyl)imino]ethyl-4-chlorophenyl]-trifluoromethanesulfonamide] | 0.64 |  |  | 100 | 100 | 0.90 | 78^A % | 
3 | CCC(=NN1CCOC1=O)c1cc(Cl)ccc1NS(=O)(=O)C(F)(F)F [Compound 35] | 1.5 | 4.3 | 100 |  | 100 |  |  | 100
4 | CCC(=NNC(=O)c1ccc(Cl)cc1)c1cc(Cl)ccc1NS(=O)(=O)C(F)(F)F [Compound 60] | 7.1 | 4.1 | 75 | 60 | 100 |  |  | 
5 | CC(=NN(C)C(=O)c1ccc(Cl)cc1Cl)c1cc(Cl)ccc1NS(=O)(=O)C(F)(F)F [Compound 62] | 1.6 | 2.2 | 100 | 100 | 100 |  |  | 
6 | CC(=NN(C)c1cccc(C(F)(F)F)c1)c1cc(Cl)ccc1NS(=O)(=O)C(F)(F)F [Compound 203] | 0.68 | 1.30 | 95 | 11 | 98 |  |  | 
7 | CC(=NN(C)c1ccc(Cl)c(Cl)c1)c1cc(Cl)ccc1NS(=O)(=O)C(F)(F)F [Compound 96] | 3.0 | 2.0 | 78 | 19 | 99 |  |  | 
8 | CCCN(N=C(C)c1cc(Cl)ccc1NS(=O)(=O)C(F)(F)F)c1ccc(C)cc1 [Compound 73] | 5.3 | 2.1 | 88 | 96 | 100 |  |  | 
9 | CCC(=NN(C)C(=O)c1ccc(Cl)cc1)c1cc(Cl)ccc1NS(=O)(=O)C(F)(F)F [Compound 81] | 1.49 | 2.2 | 100 | 100 | 100 |  |  | 
10 | CCC(=NN1CCCCC1)c1cc(Cl)ccc1NS(=O)(=O)C(F)(F)F [Compound 130] | 1.08 | 2.36 | 98 | 34 | 91 |  |  | 
11 | CCOC(=O)N(CC)N=C(CC)c1cc(Cl)ccc1NS(=O)(=O)C(F)(F)F [Compound 127] | 0.54 | 1.22 | 100 | 100 | 100 |  |  | 
12 | CC(=NN(C)C(=O)c1ccc(Cl)cc1)c1cc(Cl)ccc1NS(=O)(=O)C(F)(F)F [Compound 59] | 1.8 | 2.9 | 100 | 100 | 100 |  |  | 
13 | CCC(=NN(CC)C(=O)OC)c1cc(Cl)ccc1NS(=O)(=O)C(F)(F)F [Compound 140] | 0.28 | 3.70 | 100 | 89 | 100 |  |  | 
14 | CCCCCC(=O)N(CCC#N)/N=C(\C)c1cc(Cl)ccc1NS(=O)(=O)C(F)(F)F [Compound 224] | 0.71 | 3.54 | 100 | 3 | 100 |  |  | 
15 | CC(=NN(C)c1cccc(Cl)c1Cl)c1cc(Cl)ccc1NS(=O)(=O)C(F)(F)F [Compound 100] | 4.0 | 1.7 | 70 | 55 | 100 |  |  | 
16 | CCN(N=C(C)c1cc(Cl)ccc1NS(=O)(=O)C(F)(F)F)c1cccc(F)c1 [Compound 76] | 2.1 | 0.42 | 98 | 100 | 100 |  |  | 
17 | CC(=O)N(CCC#N)/N=C(\C)c1cc(Cl)ccc1NS(=O)(=O)C(F)(F)F [Compound 221] | 0.53 | 2.2 | 90 | 15 | 100 |  |  | 

From patent publication US20070238700A1, “N-PHENYL-1,1,1-TRIFLUOROMETHANESULFONAMIDE HYDRAZONE DERIVATIVE COMPOUNDS AND THEIR USAGE IN CONTROLLING PARASITES” (priority 2006, published 2007)
